EP0463592A1, “2,4- and 2,5-substituted pyridine-N-oxides, processes for their preparation and for their utilization” (HOECHST AKTIENGESELLSCHAFT, priority 1990, dated 1992)

Tested on: durch CCl4 induzierte Leberfibrose in Ratten
Test: Effect of prolyl hydroxylase inhibitors on CCl4-induced liver fibrosis in rats: serum bilirubin, bile acids, gamma GT
Format: in vivo
Settings: rat serum, 20 mg/kg total daily oral dose; for Bile acids / Bilirubin / Gamma GT: CCl4 then compound, mean ± standard deviation; for Bile acids: prozentuale Verbesserung gegenüber einer ausschließlichen CCl4-Behandlung / Bilirubin: prozentuale Verbesserung gegenüber einer ausschließlichen CCl4-Behandlung / Gamma GT: prozentuale Verbesserung gegenüber einer ausschließlichen CCl4-Behandlung: value in brackets
Source text: Um die effiziente Inhibitierung der Prolin-hydroxylase und der Lysin-hydroxylase durch die Verbindungen gemäß der Erfindung zu zeigen, werden die Konzentrationen von Bilirubin, Bile-Säuren und Gamma GT im Serum von • a) unbehandelten Ratten (Kontrolle), • b) mit CCl₄ behandelten Ratten, • c) Ratten, denen zuerst CCl₄ und anschließend eine Verbindung gemäß der Erfindung gegeben wurden, gemessen. (Die Methode ist beschrieben von Rouiller, C., Experimental toxic injury of the liver; in The Liver, C. Rouiller, Vol. 2, Seiten 335-476, New York, Academic Press 1964).
Die Ergebnisse sind in Tabelle 1 zusammengefaßt.

Compound | Bile acids | Bilirubin | Gamma GT | Bile acids: prozentuale Verbesserung gegenüber einer ausschließlichen CCl4-Behandlung | Bilirubin: prozentuale Verbesserung gegenüber einer ausschließlichen CCl4-Behandlung | Gamma GT: prozentuale Verbesserung gegenüber einer ausschließlichen CCl4-Behandlung
COCCCNC(=O)c1cc[n+]([O-])c(C(=O)NCCCOC)c1 [Beispiel 2, Pyridin-2,4-dicarbonsäure-di-N,N'-(3-methoxypropyl)amid-N-oxid] | 71 ± 42 | 2,90 ± 0,94 µm | 3,3 ± 2,2 U/L | 18% | 65% | 59%
COCCNC(=O)c1cc[n+]([O-])c(C(=O)NCCOC)c1 [Beispiel 1, Pyridin-2,4-dicarbonsäure-di-N,N'-(2-methoxyethyl)amid-N-oxid] | 97 ± 76 | 6,30 ± 5,4 µm | 4,3 ± 3,1 U/L | 0% | 0% | 27%
